# Assay: Test Example 3: effect of heating temperature and time on stability of LNB at various pH (2% LNB in buffer, TLC)
# Assay type: physicochemical
# Set-up: key to extent of decomposition: −: no decomposition; ±: slight decomposition; +: partial decomposition; ++: majority decomposition; +++: almost total decomposition
# Settings: for stability of LNB (decomposition by TLC): 65-120° C., 5-60 minutes
# Experimental: Samples of the LNB powder prepared in the above Production Example 1 were dissolved at a concentration of 2% in a 0.1 M citrate buffer solution (pH: 5.5, 5.0, 4.0, 3.0) to prepare a series of liquid compositions containing LNB. Further, a portion of the LNB solution having a pH of 3.0 was used to prepare solutions having a pH of 2.0 or 1.0 by adding 1 M hydrochloric acid.
# In a separate preparation, a sample of the LNB powder was dissolved at a concentration of 2% in a 0.1 M phosphate buffer having a pH of 7.0 to prepare a liquid composition containing LNB.
# Sets containing the liquid compositions containing LNB at each pH value were each heated at a predetermined temperature (65, 70, 80, 90, 100 or 120° C.) for a predetermined period of time (5, 10, 20, 30 or 60 minutes).
# Each of the heated liquid compositions containing LNB was cooled, and the same method as that described for Test Example 1 was used to determine whether or not decomposition had occurred, and if so, the extent of that decomposition. Based on the results, the extent of decomposition was evaluated against the criteria listed below.
# • − no decomposition • ± slight decomposition • + partial decomposition • ++ majority decomposition • +++ almost total decomposition 2) Test Results: […]
smiles,measurement,setting,value
"CC(=O)N[C@H]1C(O)O[C@H](CO)[C@@H](O)[C@@H]1O[C@@H]1O[C@H](CO)[C@H](O)[C@H](O)[C@H]1O (stereo partly drawn) [LNB, Lacto-N-biose]",extent of decomposition,"pH 4.0, 65° C., 5 minutes",−
same,extent of decomposition,"pH 4.0, 65° C., 10 minutes",−
same,extent of decomposition,"pH 4.0, 65° C., 20 minutes",−
same,extent of decomposition,"pH 4.0, 65° C., 30 minutes",−
same,extent of decomposition,"pH 4.0, 65° C., 60 minutes",−
same,extent of decomposition,"pH 4.0, 70° C., 5 minutes",−
same,extent of decomposition,"pH 4.0, 70° C., 10 minutes",−
same,extent of decomposition,"pH 4.0, 70° C., 20 minutes",−
same,extent of decomposition,"pH 4.0, 70° C., 30 minutes",−
same,extent of decomposition,"pH 4.0, 70° C., 60 minutes",−
same,extent of decomposition,"pH 4.0, 80° C., 5 minutes",−
same,extent of decomposition,"pH 4.0, 80° C., 10 minutes",−
same,extent of decomposition,"pH 4.0, 80° C., 20 minutes",−
same,extent of decomposition,"pH 4.0, 80° C., 30 minutes",−
same,extent of decomposition,"pH 4.0, 80° C., 60 minutes",−
same,extent of decomposition,"pH 4.0, 90° C., 5 minutes",−
same,extent of decomposition,"pH 4.0, 90° C., 10 minutes",−
same,extent of decomposition,"pH 4.0, 90° C., 20 minutes",−
same,extent of decomposition,"pH 4.0, 90° C., 30 minutes",−
same,extent of decomposition,"pH 4.0, 90° C., 60 minutes",−
same,extent of decomposition,"pH 4.0, 100° C., 5 minutes",−
same,extent of decomposition,"pH 4.0, 100° C., 10 minutes",−
same,extent of decomposition,"pH 4.0, 100° C., 20 minutes",−
same,extent of decomposition,"pH 4.0, 100° C., 30 minutes",−
same,extent of decomposition,"pH 4.0, 100° C., 60 minutes",−
same,extent of decomposition,"pH 4.0, 120° C., 5 minutes",−
same,extent of decomposition,"pH 4.0, 120° C., 10 minutes",−
same,extent of decomposition,"pH 4.0, 120° C., 20 minutes",−
same,extent of decomposition,"pH 4.0, 120° C., 30 minutes",−
same,extent of decomposition,"pH 4.0, 120° C., 60 minutes",−
same,extent of decomposition,"pH 5.0, 65° C., 5 minutes",−
same,extent of decomposition,"pH 5.0, 65° C., 10 minutes",−
same,extent of decomposition,"pH 5.0, 65° C., 20 minutes",−
same,extent of decomposition,"pH 5.0, 65° C., 30 minutes",−
same,extent of decomposition,"pH 5.0, 65° C., 60 minutes",−
same,extent of decomposition,"pH 5.0, 70° C., 5 minutes",−
same,extent of decomposition,"pH 5.0, 70° C., 10 minutes",−
same,extent of decomposition,"pH 5.0, 70° C., 20 minutes",−
same,extent of decomposition,"pH 5.0, 70° C., 30 minutes",−
same,extent of decomposition,"pH 5.0, 70° C., 60 minutes",−
same,extent of decomposition,"pH 5.0, 80° C., 5 minutes",−
same,extent of decomposition,"pH 5.0, 80° C., 10 minutes",−
same,extent of decomposition,"pH 5.0, 80° C., 20 minutes",−
same,extent of decomposition,"pH 5.0, 80° C., 30 minutes",−
same,extent of decomposition,"pH 5.0, 80° C., 60 minutes",−
same,extent of decomposition,"pH 5.0, 90° C., 5 minutes",−
same,extent of decomposition,"pH 5.0, 90° C., 10 minutes",−
same,extent of decomposition,"pH 5.0, 90° C., 20 minutes",−
same,extent of decomposition,"pH 5.0, 90° C., 30 minutes",−
same,extent of decomposition,"pH 5.0, 90° C., 60 minutes",−
same,extent of decomposition,"pH 5.0, 100° C., 5 minutes",−
same,extent of decomposition,"pH 5.0, 100° C., 10 minutes",−
same,extent of decomposition,"pH 5.0, 100° C., 20 minutes",−
same,extent of decomposition,"pH 5.0, 100° C., 30 minutes",−
same,extent of decomposition,"pH 5.0, 100° C., 60 minutes",±
same,extent of decomposition,"pH 5.0, 120° C., 5 minutes",−
same,extent of decomposition,"pH 5.0, 120° C., 10 minutes",−
same,extent of decomposition,"pH 5.0, 120° C., 20 minutes",±
same,extent of decomposition,"pH 5.0, 120° C., 30 minutes",±
same,extent of decomposition,"pH 5.0, 120° C., 60 minutes",±
same,extent of decomposition,"pH 5.5, 65° C., 5 minutes",−
same,extent of decomposition,"pH 5.5, 65° C., 10 minutes",−
same,extent of decomposition,"pH 5.5, 65° C., 20 minutes",−
same,extent of decomposition,"pH 5.5, 65° C., 30 minutes",−
same,extent of decomposition,"pH 5.5, 65° C., 60 minutes",−
same,extent of decomposition,"pH 5.5, 70° C., 5 minutes",−
same,extent of decomposition,"pH 5.5, 70° C., 10 minutes",−
same,extent of decomposition,"pH 5.5, 70° C., 20 minutes",−
same,extent of decomposition,"pH 5.5, 70° C., 30 minutes",−
same,extent of decomposition,"pH 5.5, 70° C., 60 minutes",−
same,extent of decomposition,"pH 5.5, 80° C., 5 minutes",−
same,extent of decomposition,"pH 5.5, 80° C., 10 minutes",−
same,extent of decomposition,"pH 5.5, 80° C., 20 minutes",−
same,extent of decomposition,"pH 5.5, 80° C., 30 minutes",−
same,extent of decomposition,"pH 5.5, 80° C., 60 minutes",−
same,extent of decomposition,"pH 5.5, 90° C., 5 minutes",−
same,extent of decomposition,"pH 5.5, 90° C., 10 minutes",−
same,extent of decomposition,"pH 5.5, 90° C., 20 minutes",−
same,extent of decomposition,"pH 5.5, 90° C., 30 minutes",−
same,extent of decomposition,"pH 5.5, 90° C., 60 minutes",±
same,extent of decomposition,"pH 5.5, 100° C., 5 minutes",−
same,extent of decomposition,"pH 5.5, 100° C., 10 minutes",−
same,extent of decomposition,"pH 5.5, 100° C., 20 minutes",−
same,extent of decomposition,"pH 5.5, 100° C., 30 minutes",±
same,extent of decomposition,"pH 5.5, 100° C., 60 minutes",+
same,extent of decomposition,"pH 5.5, 120° C., 5 minutes",−
same,extent of decomposition,"pH 5.5, 120° C., 10 minutes",±
same,extent of decomposition,"pH 5.5, 120° C., 20 minutes",+
same,extent of decomposition,"pH 5.5, 120° C., 30 minutes",+
same,extent of decomposition,"pH 5.5, 120° C., 60 minutes",+
same,extent of decomposition,"pH 7.0, 100° C., 5 minutes",+
same,extent of decomposition,"pH 7.0, 100° C., 10 minutes",+
same,extent of decomposition,"pH 7.0, 100° C., 20 minutes",++
same,extent of decomposition,"pH 7.0, 100° C., 30 minutes",++
same,extent of decomposition,"pH 7.0, 100° C., 60 minutes",+++
same,extent of decomposition,"pH 7.0, 120° C., 5 minutes",++
same,extent of decomposition,"pH 7.0, 120° C., 10 minutes",+++
same,extent of decomposition,"pH 7.0, 120° C., 20 minutes",+++
same,extent of decomposition,"pH 7.0, 120° C., 30 minutes",+++
same,extent of decomposition,"pH 7.0, 120° C., 60 minutes",+++
same,stability of LNB (decomposition by TLC),pH 7.0 or 1.0,decomposition occurred even after heating for 5 minutes
same,stability of LNB (decomposition by TLC),pH not less than 2.0 to not more than 5.5,stable and underwent almost no decomposition

# From patent publication US9060529B2, “Method for treatment of lacto-N-biose-containing solution” (Morinaga Milk Industry Co., Ltd., priority 2010, dated 2015)
